Test results taken from US20090069623A1, “METHODS AND COMPOSITIONS FOR TREATMENT OR PREVENTION OF RADIATION-INDUCED FIBROSIS” (Virginia Commonwealth University Intellectual Property …, priority 2007, published 2009).

System: CTGF, fibronectin (FN), collagen type IV (Col IV) mRNA
Assay: RT-PCR of mRNA expression in irradiated HFL-1 cells treated with simvastatin
Type: cell-based, human
Settings: simvastatin pretreatment 6 hours, 10 Gy, 20 hours, FIG. 8A
Description: For statin treatment experiments, cells were grown overnight in 35 mm plates (6-well plates were also used in some studies) to form a 75-80% confluent monolayer. The cells were then washed with PBS, and the media was changed to SFM (800 μL).
RT-PCR analysis of CTGF, COL-IV, FN and hβ2M. […] One microgram of purified total RNA was used for RT-PCR analysis using the ThermoScript RT-PCR System (Invitrogen, Inc.) according to the protocol of the manufacturer. The sequences of the forward and reverse primers are as follows: CTGF forward primer (SEQ ID NO 1) 5′-[…]-3′, CTGF reverse primer (SEQ ID NO 2) 5′-[…]-3′; COL-IV forward primer (SEQ ID NO 3) 5′-[…]-3′, COL-IV reverse primer (SEQ ID NO 4) 5′-[…]-3′; FN forward primer (SEQ ID NO 5) 5′-[…]-3′, FN reverse primer (SEQ ID NO 6) 5′-[…]-3′; hβ2M forward primer (SEQ ID NO 7) 5′-[…]-3′; hβ2M reverse primer (SEQ ID NO 8) 5′-[…]-3′. The CTGF PCR product is 242 bp in length, the COL-IV PCR product is 138 bp, the FN PCR product is 203 bp, and hβ2M PCR product is 278 bp. For PCR amplification, 25 cycles were performed for the amplification of CTGF, COL-IV, FN and hβ2M (denaturation: 94° C., 45 sec; annealing: 55° C., 45 sec; polymerization: 72° C., 1 min). Amplified products were separated by electrophoresis on a 1.0% agarose gel, and DNA was visualized by ethidium bromide staining.

SMILES: CCC(C)(C)C(=O)O[C@H]1C[C@@H](C)C=C2C=C[C@H](C)[C@H](CC[C@@H]3C[C@@H](O)CC(=O)O3)[C@H]21 [simvastatin, 2,2-dimethyl-butanoic acid(1S,3R,7S,8S,8aR)-1,2,3,7,8,8a-hexahydro-3,7-dimethyl-8-[2-[(2R,4R)-tetrahydro-4-hydroxy-6-oxo-2H-pyran-2-yl]ethyl]-1-naphthalenylester]
- expression of CTGF, FN, and Col-IV mRNA: decrease in the expression of CTGF, FN, and Col-IV mRNA
